We go through 20 molecules from patent US9193736B2, “PDE 10a inhibitors for the treatment of type II diabetes” (Janssen Pharmaceutica, NV, priority 2013, dated 2015).

In assay [1] the target is Human recombinant PDE10A2 (Homo sapiens (Human), UniProt Q9Y233). Briefly: In vitro hPDE10a: human recombinant PDE10A2 scintillation proximity assay, IC50. The format is biochemical. The note with it: human recombinant PDE10A2, SPA, 60 nM cAMP; read-out: hPDE10a2 IC50. A digest of the protocol: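 Purified recombinant human PDE10A2 (Ni-sepharose) was assayed by SPA, counting [3H]-AMP product captured on yttrium silicate beads added in zinc sulphate stop solution. Inhibition was expressed as % of activity without compound, with a no-enzyme low control. Repeat data points were aggregated.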
Human recombinant PDE10A2, sequence (Q9Y233 267-1055): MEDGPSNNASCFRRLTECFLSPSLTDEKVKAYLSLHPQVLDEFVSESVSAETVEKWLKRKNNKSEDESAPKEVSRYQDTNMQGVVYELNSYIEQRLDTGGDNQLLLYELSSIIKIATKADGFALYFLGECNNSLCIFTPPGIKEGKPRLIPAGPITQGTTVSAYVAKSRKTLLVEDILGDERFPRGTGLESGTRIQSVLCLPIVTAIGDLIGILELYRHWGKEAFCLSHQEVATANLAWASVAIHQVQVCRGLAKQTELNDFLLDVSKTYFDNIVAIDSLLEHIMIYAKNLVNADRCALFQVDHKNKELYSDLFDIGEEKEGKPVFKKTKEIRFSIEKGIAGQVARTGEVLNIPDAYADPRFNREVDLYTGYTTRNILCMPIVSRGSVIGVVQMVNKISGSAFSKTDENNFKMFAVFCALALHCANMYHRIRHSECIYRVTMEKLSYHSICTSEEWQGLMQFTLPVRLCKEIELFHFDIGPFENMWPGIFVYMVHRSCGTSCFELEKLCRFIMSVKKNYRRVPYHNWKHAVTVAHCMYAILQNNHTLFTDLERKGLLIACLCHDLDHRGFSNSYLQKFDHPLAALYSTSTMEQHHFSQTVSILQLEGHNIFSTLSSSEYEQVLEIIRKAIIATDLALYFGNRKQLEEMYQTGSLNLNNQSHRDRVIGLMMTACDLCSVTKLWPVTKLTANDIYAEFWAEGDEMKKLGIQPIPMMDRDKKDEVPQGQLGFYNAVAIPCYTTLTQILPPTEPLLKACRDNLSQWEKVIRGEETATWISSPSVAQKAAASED

Assay [2] concerns the target Rat recombinant PDE10a (rPDE10a) (Rattus norvegicus (Rat), UniProt Q9QYJ6). The assay can be described thus: In vitro assay PDE10a: rat recombinant PDE10a SPA with 3H-cAMP substrate, IC50. The conditions noted are these: 60 nM cAMP, read-out: rPDE10a2 IC50. The class given is biochemical. The method in brief:
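Enzyme expressed in Sf9 cells via baculovirus and Ni-sepharose purified; reaction with 3H-cAMP ran 60 min at rt, stopped with PDE SPA beads. Compounds diluted in DMSO at 100-fold final concentration; blanks omitted enzyme.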

Structures can show the parent of a compound that is named as a salt.

Rat recombinant PDE10a (rPDE10a), sequence (Q9QYJ6 whole entry): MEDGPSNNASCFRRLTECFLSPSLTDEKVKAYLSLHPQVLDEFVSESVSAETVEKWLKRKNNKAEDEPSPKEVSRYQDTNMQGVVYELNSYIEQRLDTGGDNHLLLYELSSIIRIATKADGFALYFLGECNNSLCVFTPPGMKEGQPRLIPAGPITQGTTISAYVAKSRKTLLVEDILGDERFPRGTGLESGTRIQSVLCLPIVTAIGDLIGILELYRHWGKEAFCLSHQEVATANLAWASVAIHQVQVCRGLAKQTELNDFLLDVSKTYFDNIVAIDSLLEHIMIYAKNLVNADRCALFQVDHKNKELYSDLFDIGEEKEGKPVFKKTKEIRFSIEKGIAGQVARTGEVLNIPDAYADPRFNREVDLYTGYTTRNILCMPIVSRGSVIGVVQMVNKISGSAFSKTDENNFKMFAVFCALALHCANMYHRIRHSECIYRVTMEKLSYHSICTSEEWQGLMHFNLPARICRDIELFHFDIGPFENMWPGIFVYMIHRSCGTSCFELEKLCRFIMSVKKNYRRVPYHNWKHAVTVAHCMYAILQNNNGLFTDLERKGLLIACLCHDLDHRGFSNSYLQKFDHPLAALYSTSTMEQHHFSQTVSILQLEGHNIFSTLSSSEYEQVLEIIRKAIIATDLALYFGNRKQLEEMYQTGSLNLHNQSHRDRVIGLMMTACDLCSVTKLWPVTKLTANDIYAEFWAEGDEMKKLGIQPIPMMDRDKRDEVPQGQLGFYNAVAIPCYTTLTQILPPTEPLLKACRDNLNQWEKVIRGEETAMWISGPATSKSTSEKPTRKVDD

For the molecule `O=C(O)c1ccc(-c2c(/C=C/c3ccc4ccccc4n3)nc3c(N4CCOCC4)ccnn23)cc1O` [compound 63, (E)-2-Hydroxy-4-(8-morpholino-2-(2-(quinolin-2-yl)vinyl)imidazo[1,2-b]pyridazin-3-yl)benzoic acid], the IC50 in assay [1] and in assay [2] was 3 nM throughout.
For `O=C(O)c1ccc(-c2c(C#Cc3ccc(C(F)(F)F)cn3)nc3c(N4CCOCC4)ccnn23)cc1` [Cpd 97, 4-(8-Morpholino-2-((5-(trifluoromethyl)pyridin-2-yl)ethynyl)imidazo[1,2-b]pyridazin-3-yl)benzoic acid], the IC50 in assay [1] stood at 22 nM; in assay [2] it was 20 nM.
For `C(=C\c1nc2c(N3CCOCC3)ccnn2c1-c1ccc(N2CCNCC2)nc1)/c1ccc2ccccc2n1` [Cpd 177, (E)-4-(3-(6-(piperazin-1-yl)pyridin-3-yl)-2-(2-(quinolin-2-yl)vinyl)imidazo[1,2-b]pyridazin-8-yl)morpholine trifluoroacetic acid salt] the same measures were 21 nM and 10 nM.
For `c1ccc2nc(SCc3nc4c(N5CCOCC5)ccnn4c3-c3ccc(-c4nnn[nH]4)nc3)ccc2c1` [Cpd 32, 4-(3-(6-(1H-Tetrazol-5-yl)pyridin-3-yl)-2-((quinolin-2-ylthio)methyl)imidazo[1,2-b]pyridazin-8-yl)morpholine trifluoroacetic acid salt] the same measures were 2 nM and 1 nM.
As to `COc1cc(-c2c(CCc3ccc4ccccc4n3)nc3c(N4CCOCC4)ccnn23)ccc1C(=O)O` [compound 69, 2-Methoxy-4-(8-morpholino-2-(2-(quinolin-2-yl)ethyl)imidazo[1,2-b]pyridazin-3-yl)benzoic acid], the figures for the IC50 in assay [1] and in assay [2] were 6 nM and 4 nM, respectively.
On the same counts, the results for `O=C(O)c1ccc(-c2c(C#Cc3nc4ccccc4[nH]3)nc3c(N4CCOCC4)ccnn23)cc1` [Cpd 108, 4-(2-((1H-Benzo[d]imidazol-2-yl)ethynyl)-8-morpholinoimidazo[1,2-b]pyridazin-3-yl)benzoic acid] are less than 1 nM and less than 1 nM.
For `O=C(O)CCNc1ccc(-c2c(/C=C/c3ccc4ccccc4n3)nc3c(N4CCOCC4)ccnn23)cc1` [Cpd 93, (E)-3-(4-(8-Morpholino-2-(2-(quinolin-2-yl)vinyl)imidazo[1,2-b]pyridazin-3-yl)phenylamino)propanoic acid trifluoroacetic acid salt] the same measures were 3 nM and 3 nM.
On the same counts, the results for `O=C(O)c1ccc(Nc2c(/C=C/c3ccc4ccccc4n3)nc3c(N4CCOCC4)ccnn23)c(F)c1` [Cpd 139, (E)-3-Fluoro-4-((8-morpholino-2-(2-(quinolin-2-yl)vinyl)imidazo[1,2-b]pyridazin-3-yl)amino)benzoic acid] are 1 nM and 2 nM.
Regarding `CS(=O)(=O)Nc1ccc(-c2c(CCc3ccc4ccccc4n3)nc3c(N4CCOCC4)ccnn23)cc1` [compound 45, N-(4-(8-Morpholino-2-(2-(quinolin-2-yl)ethyl)imidazo[1,2-b]pyridazin-3-yl)phenyl)methanesulfonamide], the IC50 came out at 8 nM in assay [1] and 5 nM in assay [2].
In the case of `CS(=O)(=O)NC(=O)CCc1ccc(-c2c(/C=C/c3ccc4ccccc4n3)nc3c(N4CCOCC4)ccnn23)cn1` [Cpd 129, (E)-N-(Methylsulfonyl)-3-(5-(8-morpholino-2-(2-(quinolin-2-yl)vinyl)imidazo[1,2-b]pyridazin-3-yl)pyridin-2-yl)propanamide trifluoroacetic acid salt], the figures for the IC50 in assay [1] and in assay [2] were 2 nM and 6 nM, respectively.
On the same counts, the results for `CS(=O)(=O)NC(=O)c1ccc(-c2c(CSc3ccc4ccccc4n3)nc3c(N4CCOCC4)ccnn23)cc1` [Cpd 120, N-(Methylsulfonyl)-4-(8-morpholino-2-((quinolin-2-ylthio)methyl)imidazo[1,2-b]pyridazin-3-yl)benzamide] are 3 nM and 2 nM.
On the same counts, the results for `C(=C\c1nc2c(N3CCOCC3)ccnn2c1-c1ccc(Sc2cnn[nH]2)nc1)/c1ccc2ccccc2n1` [Cpd 23, 2-[(E)-2-{8-Morpholin-4-yl-3-[6-(1H-1,2,3-triazol-5-ylsulfanyl)pyridin-3-yl]imidazo[1,2-b]pyridazin-2-yl}ethenyl]quinoline] are 8 nM and 6 nM.
On the same counts, the results for `O=C(O)[C@@H]1CCCN1C(=O)c1ccc(-c2c(CCc3ccc4ccccc4n3)nc3c(N4CCOCC4)ccnn23)cc1` [Cpd 72, (S)-1-(4-(8-Morpholino-2-(2-(quinolin-2-yl)ethyl)imidazo[1,2-b]pyridazin-3-yl)benzoyl)pyrrolidine-2-carboxylic acid trifluoroacetic acid salt] are 6 nM and 8 nM.
On to `COc1cccc(C#Cc2nc3c(N4CCOCC4)ccnn3c2-c2ccc(C(=O)O)cc2)n1` [Cpd 109, 4-(2-((6-Methoxypyridin-2-yl)ethynyl)-8-morpholinoimidazo[1,2-b]pyridazin-3-yl)benzoic acid], for which the IC50 in assay [1] and in assay [2] was less than 1 nM in each case.
Consider `CS(=O)(=O)NC(=O)Nc1ccc(-c2c(/C=C/c3ccc4ccccc4n3)nc3c(N4CCOCC4)ccnn23)cc1` [compound 50, (E)-N-((4-(8-Morpholino-2-(2-(quinolin-2-yl)vinyl)imidazo[1,2-b]pyridazin-3-yl)phenyl)carbamoyl)methanesulfonamide], for which the figures for the IC50 in assay [1] and in assay [2] were 8 nM and 3 nM, respectively.
For `O=C(O)c1ccc(-c2c(C3CN(c4ccc5ccccc5n4)C3)nc3c(N4CCOCC4)ccnn23)cc1` [Cpd 157, 4-(8-Morpholino-2-(1-(quinolin-2-yl)azetidin-3-yl)imidazo[1,2-b]pyridazin-3-yl)benzoic acid] the same measures were 2 nM and 2 nM.
As for `O=C(O)c1ccc(-c2c(/C=C/c3ccccn3)nc3c(N4CCOCC4)ccnn23)cc1` [Cpd 89, (E)-4-(8-Morpholino-2-(2-(pyridin-2-yl)vinyl)imidazo[1,2-b]pyridazin-3-yl)benzoic acid], the IC50 in assay [1] was 89 nM; in assay [2] it was 62 nM.
For `COc1cccc(/C=C/c2nc3c(N4CCOCC4)ccnn3c2-c2ccc(C(=O)O)cc2)n1` [Cpd 133, 4-{2-[(E)-2-(6-Methoxypyridin-2-yl)ethenyl]-8-morpholin-4-ylimidazo[1,2-b]pyridazin-3-yl}benzoic acid] the same measures were 62 nM and 70 nM.
For the molecule `CS(=O)(=O)Nc1ccc(-c2c(/C=C/c3ccc4ccccc4n3)nc3c(N4CCOCC4)ccnn23)cc1` [compound 47, (E)-N-(4-(8-Morpholino-2-(2-(quinolin-2-yl)vinyl)imidazo[1,2-b]pyridazin-3-yl)phenyl)methanesulfonamide], the values for the IC50 in assay [1] and in assay [2] were 14 nM and 11 nM, respectively.
For `O=C(O)c1ccc(-c2c(CCc3ccc4ccccc4n3)nc3c(N4CCOCC4)ccnn23)s1` [compound 61, 5-(8-Morpholino-2-(2-(quinolin-2-yl)ethyl)imidazo[1,2-b]pyridazin-3-yl)thiophene-2-carboxylic acid] the same measures were less than 1 nM and less than 1 nM.

As usually defined, the IC50 is the concentration that gives 50% inhibition.
